Reference: US9493451B2 (Bionomics Limited, priority 2011, dated 2016)
pIC50: −log10 of the molar value.

target: T1, Kv1.3 (Homo sapiens, UniProt P22001); test: Electrophysiology: planar patch-clamp of Kv1.3 currents, IC50 from steady state current amplitude; assay type: cell-based; conditions: Kv1.3 electrophysiology, results according to Method D1, read-out: IC50 (Kv1.3 ephys steady state)
T1 construct: expressed in transfected cells; host or cells: CHO (Kv1.3/CHO)
Procedure: The inhibition data shown for the compounds of the list below was calculated using the steady state current amplitude at the end of the depolarising pulse in patch clamp evaluations (as described in the Biology Protocols: 1. Electrophysiology).
Kv1.x currents were measured in Kv1.3/CHO or Kv1.5/CHO cells using a planar electrode version (Nanion Technologies GMBH) of the patch-clamp technique. Whole-cell Kv1.x current transients were evoked by 500 ms depolarising voltage pulses to +40 mV from a holding potential of −80 mV applied at 10 s intervals for Kv1.5 and at 30 s intervals for Kv1.3 to allow adequate time for recovery from inactivation. Cells were continuously bathed in a buffered saline solution containing (mM): 160 NaCl, 4.5 KCl, 2 CaCl2, 1 MgCl2, 5 glucose, 10 HEPES, pH 7.4, 290-310 mOsm·Kg^−1. The internal (pipette) solution contained (mM): 10 NaCl, 70 KF, 75 KCl, 2 MgCl2, 10 HEPES, 10 EGTA, pH 7.2, 290-310 mOsm·Kg^−1. Series resistance compensation (60-80%) was applied to cells in which the peak current amplitude exceeded 2 nA.
Compound Preparation and Potency Assessment
Compounds were initially dissolved in DMSO to 10 mM. After further dilution in DMSO, compounds were finally diluted in bath solution 1/200 (to give a final DMSO concentration of 0.5%) and applied directly to the recording chamber. Compounds were added at increasing concentrations allowing ample time for steady state block to be achieved between each concentration. Each compound was tested at 5-6 different concentrations on 2-3 cells. Compound IC50 values were determined by fitting the average normalised reduction of either the current integral or the steady state current amplitude at the end of the 500 ms depolarising pulse obtained at each compound concentration to the Hill equation. The IC50 data reported herein is based on the steady state calculation.

T1 sequence (P22001 whole entry): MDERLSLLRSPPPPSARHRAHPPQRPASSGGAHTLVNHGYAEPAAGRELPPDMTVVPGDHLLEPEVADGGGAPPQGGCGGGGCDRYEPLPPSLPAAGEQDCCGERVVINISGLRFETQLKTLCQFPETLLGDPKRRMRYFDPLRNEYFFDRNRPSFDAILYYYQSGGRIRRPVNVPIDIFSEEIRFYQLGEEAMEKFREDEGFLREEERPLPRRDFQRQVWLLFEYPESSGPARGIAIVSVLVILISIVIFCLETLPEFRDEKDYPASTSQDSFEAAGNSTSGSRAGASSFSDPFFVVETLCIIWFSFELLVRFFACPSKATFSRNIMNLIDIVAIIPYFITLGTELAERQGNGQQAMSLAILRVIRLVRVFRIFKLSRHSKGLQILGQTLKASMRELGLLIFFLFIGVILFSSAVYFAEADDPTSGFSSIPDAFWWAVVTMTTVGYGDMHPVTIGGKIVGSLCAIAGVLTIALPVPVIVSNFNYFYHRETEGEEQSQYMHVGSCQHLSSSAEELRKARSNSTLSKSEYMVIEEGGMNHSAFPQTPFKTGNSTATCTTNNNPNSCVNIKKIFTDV

SMILES | pIC50
CCS(=O)(=O)c1cccc(C(C2CC2)N(C(=O)C2CC2c2ccccc2OC(F)(F)F)C2CCOCC2)c1 (centres unmarked) [Example 221] | 6.00 to 6.70
CCS(=O)(=O)c1cccc(C(C2CC2)N(Cc2cccnn2)C(=O)C2CC2c2cccc(C(F)(F)F)c2)c1 (centres unmarked) [Example 225] | 6.00 to 6.70
CCS(=O)(=O)c1cccc(C(C2CC2)N(Cc2cccnn2)C(=O)C2CC2c2cccc(C(F)(F)F)c2)c1 (centres unmarked) [Example 226] | 6.00 to 6.70
CC(C)S(=O)(=O)c1ccc(C(C2CC2)N(Cc2ncccc2F)C(=O)C2CC2c2ccc(F)cc2)cc1 (centres unmarked) [Example 234] | 6.00 to 6.70
CC(C)S(=O)(=O)c1ccc(C(C2CC2)N(Cc2ncccc2F)C(=O)C2CC2c2ccc(F)cc2)cc1 (centres unmarked) [Example 235] | 6.00 to 6.70
CC(C)S(=O)(=O)c1ccc(C(C2CC2)N(Cc2ccc(F)cn2)C(=O)C2CC2c2ccc(F)cc2)cc1 (centres unmarked) [Example 239] | 6.00 to 6.70
CC(C)S(=O)(=O)c1cccc(C(C2CC2)N(Cc2cccnn2)C(=O)C2CC2c2ccc(F)cc2)c1 (centres unmarked) [Example 240] | 6.00 to 6.70
CC(C)S(=O)(=O)c1cccc(C(C2CC2)N(Cc2cccnn2)C(=O)C2CC2c2ccc(F)cc2)c1 (centres unmarked) [Example 241] | 6.00 to 6.70
CC(C)S(=O)(=O)c1cccc(C(C2CC2)N(Cc2cncc(F)c2)C(=O)C2CC2c2ccc(F)cc2)c1 (centres unmarked) [Example 244] | 6.00 to 6.70
CC(C)S(=O)(=O)c1cccc(C(C2CC2)N(Cc2ncccc2F)C(=O)C2CC2c2ccc(F)cc2)c1 (centres unmarked) [Example 245] | 6.00 to 6.70
CC(C)S(=O)(=O)c1cccc(C(C2CC2)N(Cc2ncccc2F)C(=O)C2CC2c2ccc(F)cc2)c1 (centres unmarked) [Example 246] | 6.00 to 6.70
O=C(C1CC1c1ccc(F)cc1)N(Cc1cccnn1)C(c1ccc(S(=O)(=O)C2CC2)cc1)C1CC1 (centres unmarked) [Example 248] | 6.00 to 6.70
O=C(C1CC1c1ccc(F)cc1)N(Cc1ccc(F)cn1)C(c1ccc(S(=O)(=O)C2CC2)cc1)C1CC1 (centres unmarked) [Example 250] | 6.00 to 6.70
N#Cc1cccc(C(C2CC2)N(Cc2ncccc2F)C(=O)C2CC2c2ccc(F)cc2)c1 (centres unmarked) [Example 251] | 6.00 to 6.70
CC(CC(=O)N(Cc1cccnn1)C(c1ccc(OC(F)F)cc1)C1CC1)c1ccccc1C(F)(F)F (centres unmarked) [Example 261] | 6.00 to 6.70
CC(CC(=O)N(Cc1ccc(F)cn1)C(c1ccc(F)cc1F)C1CCN(C)CC1)c1ccc(F)cc1 (centres unmarked) [Example 271] | 6.00 to 6.70
CC(CC(=O)N(Cc1cccc[n+]1[O-])C(c1ccc(Cl)cc1)C1CC1)c1ccc(F)cc1 (centres unmarked) [Example 272] | 6.70 to 7.30

SMILES | pIC50
CC(c1ccc(Cl)cc1)N(C(=O)CS(=O)(=O)c1ccc(F)cc1)C1CC2CCC(C1)N2C (centres unmarked) [Example 280] | 6.00 to 6.70
O=C(CS(=O)(=O)c1ccccc1)N(Cc1ccc(C(F)(F)F)nc1)C(c1ccc(F)cc1)C1CCCO1 (centres unmarked) [Example 282] | 6.70 to 7.30
CC(C)C(c1ccc(F)cc1)N(CCC1CCNCC1)C(=O)CS(=O)(=O)c1ccc(F)cc1 (centres unmarked) [Example 284] | 6.00 to 6.70
CN1CCC(C(c2ccc(F)cc2F)N(Cc2ccc(F)cn2)C(=O)CS(=O)(=O)c2ccc(F)cc2)CC1 (centres unmarked) [Example 287] | 6.00 to 6.70
CC(c1ccc(S(C)(=O)=O)cc1)N(Cc1ccc(C(F)(F)F)nc1)C(=O)C(C)(C)S(=O)(=O)c1ccccc1 (centres unmarked) [Example 288] | 5.70 to 6.00
O=C(CS(=O)(=O)c1ccc(F)cc1)N(Cc1ccc(F)cn1)C(c1ccc(Cl)cc1)C1CC1 (centres unmarked) [Example 290] | 6.70 to 7.30
O=C(CS(=O)(=O)c1ccc(F)cc1)N(Cc1ccc(F)nc1)C(c1ccc(Cl)cc1)C1CC1 (centres unmarked) [Example 291] | 6.70 to 7.30
O=C(CS(=O)(=O)c1cccc(C(F)(F)F)c1)N(Cc1cccc[n+]1[O-])C(c1ccc(Cl)cc1)C1CC1 (centres unmarked) [Example 292] | 6.00 to 6.70
O=C(CS(=O)(=O)c1cccc(C(F)(F)F)c1)N(Cc1ccccn1)C(c1ccc(Cl)cc1)C1CC1 (centres unmarked) [Example 293] | 6.70 to 7.30
O=C(CS(=O)(=O)c1cccc(C(F)(F)F)c1)N(Cc1ccccn1)C(c1ccc(Cl)cc1)C1CC1 (centres unmarked) [Example 294] | 6.70 to 7.30
COc1ccc(CN(C(=O)CS(=O)(=O)c2ccc(F)cc2)C(c2ccc(Cl)cc2)C2CC2)cn1 (centres unmarked) [Example 295] | 6.70 to 7.30
O=C(CS(=O)(=O)c1ccc(F)cc1)N(C1CCNCC1)C(c1ccc(OC(F)F)cc1)C1CC1 (centres unmarked) [Example 298] | 6.00 to 6.70
O=C(CS(=O)(=O)c1ccccc1F)N(Cc1ccc(C(F)(F)F)nc1)C(c1ccc(OC(F)F)cc1)C1CC1 (centres unmarked) [Example 299] | 6.70 to 7.30
O=C(CS(=O)(=O)c1ccccc1F)N(Cc1ccc(C(F)(F)F)nc1)C(c1ccc(OC(F)F)cc1)C1CC1 (centres unmarked) [Example 300] | 6.70 to 7.30
O=C(CS(=O)(=O)c1ccccc1)N(Cc1ccc(C(F)(F)F)nc1)C(c1ccc(OC(F)F)cc1)C1CC1 (centres unmarked) [Example 301] | 6.70 to 7.30
O=C(CS(=O)(=O)c1ccccc1)N(Cc1ccc(C(F)(F)F)nc1)C(c1ccc(OC(F)F)cc1)C1CC1 (centres unmarked) [Example 302] | 6.70 to 7.30

More lines, now with the values ahead:

pIC50 | SMILES
6.70 to 7.30 | CCS(=O)(=O)c1cccc(C(C2CC2)N(Cc2ncccc2F)C(=O)C2CC2c2ccc(F)cc2)c1 (centres unmarked) [Example 218]
6.70 to 7.30 | CCS(=O)(=O)c1cccc(C(C2CC2)N(C(=O)C2CC2c2ccc(F)cc2)C2CCC(F)(F)CC2)c1 (centres unmarked) [Example 219]
6.70 to 7.30 | CCS(=O)(=O)c1cccc(C(C2CC2)N(C(=O)C2CC2c2ccccc2OC(F)(F)F)C2CCOCC2)c1 (centres unmarked) [Example 220]
6.70 to 7.30 | CCS(=O)(=O)c1cccc(C(C2CC2)N(Cc2ccc(F)cn2)C(=O)C2CC2c2ccc(OC(F)F)cc2)c1 (centres unmarked) [Example 222]
6.70 to 7.30 | CCS(=O)(=O)c1cccc(C(C2CC2)N(Cc2cccnn2)C(=O)C2CC2c2ccc(F)cc2)c1 (centres unmarked) [Example 223]
6.70 to 7.30 | CCS(=O)(=O)c1ccc(C(C2CC2)N(Cc2ccc(F)cn2)C(=O)C2CC2c2cccc(C(F)(F)F)c2)cc1 (centres unmarked) [Example 227]
6.70 to 7.30 | CCS(=O)(=O)c1ccc(C(C2CC2)N(Cc2ccc(F)cn2)C(=O)C2CC2c2cccc(C(F)(F)F)c2)cc1 (centres unmarked) [Example 228]
6.70 to 7.30 | CCS(=O)(=O)c1ccc(C(C2CC2)N(Cc2ccc(F)cn2)C(=O)C2CC2c2ccc(F)cc2F)cc1 (centres unmarked) [Example 229]
6.70 to 7.30 | CCS(=O)(=O)c1ccc(C(C2CC2)N(Cc2ccc(F)cn2)C(=O)C2CC2c2ccc(F)cc2F)cc1 (centres unmarked) [Example 230]
6.70 to 7.30 | CCS(=O)(=O)c1ccc(C(C2CC2)N(Cc2cccnn2)C(=O)C2CC2c2ccc(F)cc2)cc1 (centres unmarked) [Example 231]
6.70 to 7.30 | CCS(=O)(=O)c1ccc(C(C2CC2)N(Cc2ccc(F)cn2)C(=O)C2CC2c2ccc(F)cc2)cc1 (centres unmarked) [Example 232]
6.70 to 7.30 | CCS(=O)(=O)c1ccc(C(C2CC2)N(Cc2ccc(F)cn2)C(=O)C2CC2c2ccc(F)cc2)cc1 (centres unmarked) [Example 233]
6.70 to 7.30 | CC(C)S(=O)(=O)c1ccc(C(C2CC2)N(Cc2cccnn2)C(=O)C2CC2c2ccc(F)cc2)cc1 (centres unmarked) [Example 236]
6.70 to 7.30 | CC(C)S(=O)(=O)c1ccc(C(C2CC2)N(Cc2cccnn2)C(=O)C2CC2c2ccc(F)cc2)cc1 (centres unmarked) [Example 237]
6.70 to 7.30 | CC(C)S(=O)(=O)c1ccc(C(C2CC2)N(Cc2ccc(F)cn2)C(=O)C2CC2c2ccc(F)cc2)cc1 (centres unmarked) [Example 238]
6.70 to 7.30 | CC(C)S(=O)(=O)c1cccc(C(C2CC2)N(Cc2ccc(F)cn2)C(=O)C2CC2c2ccc(F)cc2)c1 (centres unmarked) [Example 242]
6.70 to 7.30 | CC(C)S(=O)(=O)c1cccc(C(C2CC2)N(Cc2ccc(F)cn2)C(=O)C2CC2c2ccc(F)cc2)c1 (centres unmarked) [Example 243]
6.70 to 7.30 | CC(C)S(=O)(=O)c1cccc(C(C2CC2)N(Cc2ccncn2)C(=O)C2CC2c2ccc(F)cc2)c1 (centres unmarked) [Example 247]
6.70 to 7.30 | O=C(C1CC1c1ccc(F)cc1)N(Cc1cccnn1)C(c1ccc(S(=O)(=O)C2CC2)cc1)C1CC1 (centres unmarked) [Example 249]
6.70 to 7.30 | N#Cc1cccc(C(C2CC2)N(Cc2ncccc2F)C(=O)C2CC2c2ccc(F)cc2)c1 (centres unmarked) [Example 252]
> 7.30 | CCS(=O)(=O)c1cccc(CN(C(=O)C2CC2c2ccc(F)cc2)C(c2ccc(Cl)cc2)C2CC2)n1 (centres unmarked) [Example 253]
6.70 to 7.30 | CSc1cccc(CN(C(=O)C2CC2c2ccc(F)cc2)C(c2ccc(Cl)cc2)C2CC2)n1 (centres unmarked) [Example 254]
6.70 to 7.30 | CC(CC(=O)N(Cc1cccnn1)C(c1ccc(OC(F)F)cc1)C1CC1)c1ccccc1C(F)(F)F (centres unmarked) [Example 260]
> 7.30 | CC(CC(=O)N(Cc1cccnn1)C(c1ccc(OC(F)F)cc1)C1CC1)c1ccc(F)cc1 (centres unmarked) [Example 262]
6.70 to 7.30 | CC(CC(=O)N(Cc1ccc(C(F)(F)F)nc1)C(c1ccc(OC(F)F)cc1)C1CC1)c1ccccc1S(C)(=O)=O (centres unmarked) [Example 263]
> 7.30 | CC(CC(=O)N(Cc1ccc(F)cn1)C(c1ccc(S(=O)(=O)C(C)C)cc1)C1CC1)c1ccc(F)cc1 (centres unmarked) [Example 264]
6.70 to 7.30 | CCS(=O)(=O)c1cccc(C(C2CC2)N(Cc2ccc(F)cn2)C(=O)CC(C)c2ccccc2C(F)(F)F)c1 (centres unmarked) [Example 265]
6.70 to 7.30 | CCS(=O)(=O)c1ccc(C(C2CC2)N(Cc2ccc(F)cn2)C(=O)CC(C)c2ccccc2C(F)(F)F)cc1 (centres unmarked) [Example 269]
6.70 to 7.30 | CC(CC(=O)N(Cc1ccc(F)cn1)C(c1ccc(F)cc1)C1CCCO1)c1ccc(F)cc1 (centres unmarked) [Example 270]
